Data on 2 molecules can be found in patent US9604969B2, “Pyrimidin-4-yl)oxy)-1h-indole-1-carboxamide derivatives and use thereof” (NOVARTIS AG, priority 2013, dated 2017).

Structures can show the parent of a compound that is named as a salt.

The format of data set [1] is physicochemical. The source says: Crystalline form B of the HCl salt of N-(1-methyl-5-(trifluoromethyl)-1H-pyrazol-3-yl)-5-((6-((methylamino)methyl)pyrimidin-4-yl)oxy)-1H-indole-1-carboxamide was obtained using the same procedure as in Example 5 above.
The next data set deals with human hepatocytes. Kind of data set: Hepatocyte viability during incubation (Guava ViaCount). It counts as cell-based. Particulars: 10 μmol/L, percent viable cells relative to total cells, controls without compound 4-21%. Here is the method: (§1) After thawing the cryopreserved hepatocytes, the viable cells were enriched by centrifugation in HepatoZYME cell culture medium (Gibco Invitrogen). For this purpose, the cells were added to 45 mL of a 37° C. warm HepatoZYME, and centrifuged at room temperature, at 50 g for 5 min. The supernatant containing dead cells was discarded and the cells in the pellet were re-suspended in HepatoZYME.
(§2) The viability of the re-suspended hepatocytes was determined by a Guava EasyCyte™ Mini system using the ViaCount® assay as described by the supplier (Guava Technologies, Hayward, Calif., USA). After cell counting, the cell concentration was adjusted to approx. 1·10^6 viable cells/mL by adding HepatoZYME. Subsequently, the incubations were started by adding [^14C]N-(1-methyl-5-(trifluoromethyl)-1H-pyrazol-3-yl)-5-(6-((methylamino)methyl)pyrimidin-4-yloxy)-1H-indole-1-carboxamide and non-labeled N-(1-methyl-5-(trifluoromethyl)-1H-pyrazol-3-yl)-5-(6-((methylamino)methyl)pyrimidin-4-yloxy)-1H-indole-1-carboxamide as a solution in DMSO. The final concentration of DMSO in the incubations was 0.1% (v/v).
(§3) To check the chemical stability of [^14C]N-(1-methyl-5-(trifluoromethyl)-1H-pyrazol-3-yl)-5-(6-((methylamino)methyl)pyrimidin-4-yloxy)-1H-indole-1-carboxamide under the incubation conditions, the compound was incubated at a concentration of 10 μmol/L in HepatoZYME without hepatocytes. A second series of control incubations was performed with hepatocytes of all species in the absence of the test compound to investigate the effect of the latter on the viability. These experiments were performed in a 12×6 mL MultiWell™ plate (Art. 393503, Beckton Dickinson).
(§4) The incubations were performed at 37° C. under a humidified atmosphere of 95% relative humidity and 5% CO2 in a Heraeus incubator/cytoperm (Kendro Laboratory Products AG, Zürich, Switzerland). During the incubations, the plates and flasks were shaken at 300 strokes per minute. The viability of the hepatocytes was determined after 6 h (end of incubation).

A further data set concerns monkey hepatocytes. The description is as above. In kind it is cell-based. Particulars: 10 μmol/L, percent viable cells relative to total cells, controls without compound 4-21%. The method, then:
as §1, §2, §3, §4

Another data set relates to rabbit hepatocytes. Described as above. In kind it is cell-based. Particulars: 10 μmol/L, percent viable cells relative to total cells, controls without compound 4-21%. Here is the method:
as §1, §2, §3, §4

The test system of another data set is rat hepatocytes. The description is as above. In kind it is cell-based. Particulars: 10 μmol/L, percent viable cells relative to total cells, controls without compound 4-21%. The method, then: as §1, §2, §3, §4
A short description of data set [2]: Control incubations for chemical stability in incubation media. In kind it is physicochemical. Particulars: 10 μmol/L, 37° C., incubation media in the absence of hepatocytes or liver microsomes. The method, then:
as §3
Microsomal incubations for metabolite profiles were performed at 10 μmol/L of [^14C]N-(1-methyl-5-(trifluoromethyl)-1H-pyrazol-3-yl)-5-(6-((methylamino)methyl)pyrimidin-4-yloxy)-1H-indole-1-carboxamide (approx. 50% radiolabeled) with one time point investigated (60 min). Incubations were performed at 37° C. in 0.1 mol/L sodium phosphate buffer pH 7.4. The final concentrations in the incubation cocktail were: 4 mmol/L UDPGA (Sigma-Aldrich), 1 mmol/L β-NADPH (Sigma-Aldrich), 5 mmol/L MgCl2, and 60 μg alamethicin (Sigma-Aldrich) per mg microsomal protein. The system was left to incubate for 10 min before adding the test compound to allow the pore formation with the alamethicin. […]

For `CNCc1cc(Oc2ccc3c(ccn3C(=O)Nc3cc(C(F)(F)F)n(C)n3)c2)ncn1` [Form B, N-(1-methyl-5-(trifluoromethyl)-1H-pyrazol-3-yl)-5-((6-((methylamino)methyl)pyrimidin-4-yl)oxy)-1H-indole-1-carboxamide (HCl Salt) Form B], in data set [1], the “Stability of crystalline form” value is listed as “transient form that converts back to Form A”.

With `CNCc1cc(Oc2ccc3c(ccn3C(=O)Nc3cc(C(F)(F)F)n(C)n3)c2)ncn1` [N-(1-methyl-5-(trifluoromethyl)-1H-pyrazol-3-yl)-5-((6-((methylamino)methyl)pyrimidin-4-yl)oxy)-1H-indole-1-carboxamide], the “Viability at 6 h” value in the data set with human hepatocytes came out at 25%; in the data set on monkey hepatocytes, 42%; in the data set on rabbit hepatocytes, 8%; with rat hepatocytes, 22%. Moreover, the “Chemical stability under the incubation conditions” value in data set [2] is listed as “confirmed the stability of the compound”.
